# Experiments:
# DOCA-salt hypertension = assay: DOCA-salt hypertension, long-term MABP by radiotelemetry; type: in vivo, rats; details: for development of DOCA-salt hypertension / basal MABP: 5 mg/kg/day; for development of DOCA-salt hypertension: initiated 13 days before inducing DOCA-salt hypertension; for basal MABP: pretreatment 13 days before inducing DOCA-salt hypertension
# Description: This example describes the effects of 8-aminoguanosine and 8-aminoguanine on DOCA-salt hypertension. Rats were instrumented for long-term and continuous measurement of arterial blood pressure by radiotelemetry as recently described (Jackson E K et al., Hypertension, 65:238-249, 2015). After at least 20 days of from the time of radiotransmitter implantation, hypertension was induced in the animals by removing one kidney, subcutaneously administering deoxycorticosterone acetate (30 mg/kg twice weekly), and providing 1% NaCl as drinking water (i.e., DOCA-salt hypertension). At this time, some animals were also randomized to receive either drinking water without 8-aminoguanosine or drinking water containing 8-aminoguanosine (10 mg/kg/day). In two other experiments, 8-aminoguanosine ([…]) or 8-aminoguanine (5 mg/kg/day) was administered 13 days before DOCA-salt hypertension was induced.
# Results. Three studies were conducted to assess the effects of 8-aminoguanosine and 8-aminoguanine on DOCA-salt hypertension. In one study, DOCA-salt hypertension was induced at the same time that treatment with 8-aminoguanosine (10 mg/kg/day) was initiated. In two other studies, treatment with 8-aminoguanosine (5 mg/kg/day) or 8-aminoguanine (5 mg/kg/day) was initiated 13 days before inducing DOCA-salt hypertension. Treatments were maintained for the duration of the studies, and the MABP was continuously monitored by radiotelemetry. As shown in FIGS. 10A-10C, 8-aminoguanosine at 10 mg/kg/day prevented DOCA-salt hypertension.
# [1] = system: Dahl salt-sensitive rats (Dahl SS); assay: Survival of Dahl SS on high-salt diet; type: in vivo; details: for median survival time: 10 mg/kg/day beginning 23 days before high-salt (8% NaCl) diet, control 70 days; for hemiparalysis before death / increase in lifespan: 10 mg/kg/day; for hemiparalysis before death: high-salt diet; for increase in lifespan: versus control group on high-salt diet
# Description: This example describes the long-term effects of 8-aminoguanine (FIG. 15A) and 8-aminoguanosine (FIG. 15B) on survival in Dahl salt-sensitive rats (Dahl SS). Dahl SS are a well-established model of salt-sensitive hypertension. The control group of Dahl SS received only normal drinking water; whereas the treatment group received 8-aminoguanine or 8-aminoguanosine (10 mg/kg/day) beginning 23 days before starting a high-salt (8% NaCl) diet and continuing until all animals expired. The control group was also provided a high-salt diet at the same time as the treated group. FIGS. 15A-15B show survival curves for the control group versus the 8-aminoguanine-treated group or 8-aminoguanosine-treated group.
# [2] = Protocol 2: renal microdialysate and urine levels after intravenous bolus (Example 12); details: after 33.5 μmoles/kg intravenous bolus
# Description: Rats were prepared in a similar fashion to that described in Protocol 1, but with modifications. Specifically, microdialysis probes were inserted into the cortex and medulla of the right kidney and were perfused at 2 μl/min with 0.9% saline. The microdialysis probes used in this protocol were from Bioanalytical Systems (West Lafayette, Ind.; CMA/20 microdialysis probe 4 mm; outer diameter of 0.5 mm; 20,000 dalton membrane cut-off). After initiating the probe perfusions, the infusion rate of 0.9% saline via the jugular vein was reduced to 25 μl/min to avoid volume overload. The rats then stabilized for two hours for the kidney to recover from the trauma induced by the probe insertions.
# Next, microdialysate from the renal cortex and medulla as well as urine were collected for 30 minutes, and MABP and HR were time averaged during this first (basal) period. Rats were then randomized to receive 8-aminoguanosine, 8-aminoguanine, or vehicle using the dose and manner described for Protocol 1. Ten minutes after the treatments, microdialysate from the renal cortex and medulla as well as urine were again collected for 30 minutes, and MABP and HR were time averaged during this treatment period. After 15 minutes, this procedure was repeated. 8-Aminoguanosine and 8-aminoguanine were measured in urine and microdialysate using ultra-performance liquid chromatography-tandem mass spectrometry (LC-MS/MS) as described below.
# Assay for 8-Aminoguanosine and 8-Aminoguanine. The purines in the urine and microdialysate were measured by LC-MS/MS using a method similar to a previously described method (Jackson et al., J Biol Chem 284:33097-33106, 2009), but with modifications. Purines were separated using reversed-phase ultra-performance liquid chromatography (Waters UPLC BEH C18 column, 1.7 μm beads; 2.1×150 mm; Milford, Mass.) and quantified by selected reaction monitoring using a triple quadrupole mass spectrometer (TSQ Quantum-Ultra; ThermoFisher Scientific, San Jose, Calif.) with a heated electrospray ionization source. The mobile phase included a linear gradient flow rate (300 uL/min) of 1% acetic acid in water (pH, 3; mobile phase A) as well as 100% methanol (mobile phase B) and was delivered with a Waters Acquity ultra-performance liquid chromatographic system. […]
# Microdialysis probes were inserted into the renal cortex and medulla of anesthetized rats; the rats stabilized for 2 hours and were then administered an intravenous bolus of vehicle (control group), 8-aminoguanosine (33.5 μmoles/kg), or 8-aminoguanine (33.5 μmoles/kg). The levels of these compounds were then measured in the renal cortex and medulla as well as in the urine using LC-MS/MS.
# [3] = system: RBCs from SCD patients (HbSS); assay: Hypoxia-induced sickling of RBCs from SCD patients; type: cell-based, human
# Description: In addition to causing PH in SCD patients and HIV-infected patients, the contribution of PNPase to RBC sickling in SCD patients was assessed. Fresh RBCs were obtained from two adult SCD patients (HbSS); the RBCs were diluted in F-10 HAM buffer to a final hematocrit of 4%. Next, glucose was added for a final concentration of 5.5 mmol/L, and the samples were incubated at room air/temperature in 12-well plates. The RBCs were then treated with either vehicle, 8-aminoguanosine (2 μmol/L), inosine (2 μmol/L), or an 8-aminoguanosine and inosine combination. After 1.5 hours, the RBCs were placed in a hypoxic glove box and maintained under hypoxia (5% 02) for 3 hours, while undergoing mild agitation. At the end of incubation, to prevent reoxygenation-derived morphological changes, the RBCs were fixed under hypoxic conditions in the hypoxic glove box. The samples were assayed for percent sickling.
# [4] = system: Sugen 5416+hypoxia-induced PH; assay: Sugen 5416+hypoxia-induced angioproliferative pulmonary hypertension; type: in vivo, female Sprague Dawley rats; details: 30 mg/kg/day in drinking water
# Source text: A total of 36 female Sprague Dawley rats were used to determine whether administration of the PNPase inhibitor 8-aminoguanosine attenuates development of angioproliferative PH in animals with Sugene5416+hypoxia-induced PH. The animals were randomly assigned to receive subcutaneous injection of vehicle [(control group; n=8; 0.5% (w/v) carboxymethylcellulose sodium, 0.9% (w/v) sodium chloride, 0.4% (v/v) polysorbate 80, and 0.9% (v/v) benzyl alcohol in deionized water] or subcutaneous injection of SU5416 20 mg/kg (n=16; SU+Hx group). A subset of the SU5416-treated animals received 8-aminoguanosine (30 mg/kg/day in drinking water (n=12; 8-amino-guanosine group). On day 0, all SU5416-treated animals (SU+Hx and 8-aminoguanosine groups) were exposed to chronic hypoxia for 3 weeks. The animals were placed into normobaric plexiglas chambers (BioSpherix, Redfield, N.J., USA). The chambers were continuously flushed with nitrogen to maintain 10% oxygen and low CO2 concentrations (<0.5%) with the O2 and CO2 concentrations continuously monitored (PROOX110, BioSpherix oxygen controller and LB-2 CO2 analyzer, Sensormedics). At day 21, the animals were returned to a normoxic environment. Three weeks later (day 42), the animals were anesthetized and instrumented for RVPSP measurements. A PE-240 polyethylene catheter was inserted into the trachea to facilitate breathing, and the SPR-513 catheter (Millar Instruments) was inserted into right jugular vein and advanced into RV for RVPSP measurements. After 20-30-minutes of stabilization, RVPSP was recorded over 20 minutes. The animals were euthanized by anesthetic overdose, and the heart and lungs were collected for morphometric analyses.
SMILES,development of DOCA-salt hypertension (DOCA-salt hypertension),basal MABP (DOCA-salt hypertension),median survival time [1],hemiparalysis before death [1],increase in lifespan [1],interstitial levels of 8-aminoguanine in the renal cortex ([2]; microdialysate),interstitial levels of 8-aminoguanine in the renal medulla ([2]; microdialysate),urinary levels of 8-aminoguanine ([2]; urine),urinary levels of 8-aminoguanosine ([2]; urine),"DOCA-salt hypertension (MABP) (DOCA-salt hypertension; 10 mg/kg/day in drinking water, started when hypertension was induced)","hypoxia-induced sickling of RBCs ([3]; 2 μmol/L, 1.5 hours pre-incubation, then hypoxia for 3 hours)",effect on the inhibitory effects of inosine on hypoxia-induced sickling ([3]; 8-aminoguanosine (2 μmol/L) combined with inosine (2 μmol/L)),Fulton index ([4]; day 42),RV contractility ([4]; day 42),RV end diastolic pressure (RV EDP) ([4]; day 42),right ventricular peak systolic pressure (RVPSP) ([4]; day 42),grade 6 necrotizing arteritis lesions ([4]; histopathology),occlusive vascular lesions ([4]; histopathology),plexiform vascular lesions ([4]; histopathology)
"Nc1nc2[nH]c(N)nc2c(=O)[nH]1 [8-aminoguanine, 8-Aminoguanine]",markedly attenuated,did not affect,108 days,did not exhibit hemiparalysis,54%,"immediate, sustained, similar, and large increases","immediate, sustained, similar, and large increases","immediate, sustained, similar, and large increases",did not affect,,,,,,,,,,
"Nc1nc2c(nc(N)n2[C@@H]2O[C@H](CO)[C@@H](O)[C@H]2O)c(=O)[nH]1 [8-aminoguanosine, 8-Aminoguanosine]",markedly attenuated,did not affect,108 days,did not exhibit hemiparalysis,54%,,,,,prevented,significantly reduced,potentiated,decreased,improved,decreased,significantly reduced,prevented sporadic occurrence,reduced the number,reduced the number
